{
  "source": "patent US8603452B1",
  "about": "“Method of preventing biofouling using an anti-fouling bio-hydrogel composition” (University of South Florida, priority 2007, dated 2013)",
  "origin": "cited, not measured here",
  "key": {"biofouling": {"system": "biofouling", "conditions": "hydrogel coatings containing BAC, marine environment"}},
  "note": "Like-named read-outs stand apart in the source and are kept apart here.",
  "data": [
    {"substance": "benzalkonium chloride [BAC]", "values": [
      {"measurement": "diffusion coefficient", "setting": "loss of BAC from hydrogel film, period from 12 to 50 hours, 13° C., freshwater", "value": "7.3×10^−8 cm^2 s^−1"},
      {"measurement": "diffusion coefficient", "setting": "rate of loss of the residual BAC from hydrogel film, 15° C.", "value": "5.7×10^−10 cm^2 s^−1"},
      {"measurement": "prevention of the development of biofouling (duration)", "setting": "biofouling", "value": "up to 12 weeks"}
    ]}
  ]
}
